One may read the IC50 as the concentration that inhibits the measured activity by half. A high value points to lower potency.

The text below walks through data of patent US9561259B2, “Cyclosporin analogs” (priority 2010, dated 2017).

Data set [1] can be described thus: Epimerization in MeOH at 50° C. (500 MHz NMR).
From the text: The proton attached to the sarcosine center (adjacent to the sulfur atom) appears at ˜δ 5.9 in the R-isomer whilst in the S-isomer it moves downfield to ˜δ6.5.
For data set [2], the system named is Spleen cells from C57BL/6 (responder) and BALB/c (stimulator). The data set is described as follows: Mixed Lymphocyte Reaction (MLR) assay. The class given is cell-based, mice. Conditions: five days, 3H-thymidine incorporation. As to the method:
The MLR assay is another means of estimating the immunosuppressive potential of test compounds. Female C57BL/6 and BALB/c mice, 6-8 weeks of age, were obtained from the Frederick Cancer Research and Development Center of the National Cancer Institute (Frederick, Md.). Spleens were harvested aseptically from all mice and single cell suspensions were prepared by disaggregating the cells with frosted glass slides, allowing the debris to settle, and washing the cells twice with complete medium. Complete medium consisted of RPMI 1640 medium containing 25 mM HEPES buffer (HyClone, Logan, Utah) supplemented with 10% heat-inactivated fetal bovine serum (FBS; Atlanta Biologicals, Lawrenceville, Ga.), 100 μg/mL streptomycin, 100 U/mL penicillin G, 0.25 μg/mL amphotericin B (HyClone), 2 mM L-glutamine dipeptide (HyClone), and 2×10^−5 M 2-mercaptoethanol (Sigma). Cells were washed twice and resuspended in complete medium. Cell counts were performed using a Beckman Coulter Z-1 particle counter (Fullerton, Calif.). Cell viability was determined by propidium iodide (PI) staining using an Accuri C6 flow cytometer (Ann Arbor, Mich.).
Spleen cells from C57BL/6 (H-2^b) and BALB/c (H-2^d) were used as responder (R) and stimulator (S) cells, respectively. Cells were plated in triplicate in 96-well flat microtiter plates (Costar, Cambridge, Mass.) such that each well contained 2×10^5 R and 8×10^5 S cells. Cultures were incubated in the absence or presence of various concentrations of Cs A, test compounds, or medium at 37° C. in humidified 5% CO2 for five days, pulsed with ^3H-thymidine (^3H-TdR) for the final 16 hours of incubation, and harvested using a Brandel 96-well cell harvester (Gaithersburg, Md.). Proliferation was measured by counting the radioactivity on filter mats in a Wallac 1450 Microbeta TriLux scintillation counter (Turku, Finland). […] These control cultures were incubated for 3 days under the same conditions as those described for the MLR; lymphoproliferation was determined in the same manner as described above.
A general note: Incorporation of labelled thymidine or its analogues reports DNA synthesis.

For “[(R)-(3-(4-methyl-piperazin-1-yl)-propylthio)-Sar]^3 Cyclosporin A [Example 3]”, the “Epimerization (%)” value is on record as 0% in data set [1] (time 0 days) and 2% in data set [1] (time 30 days). The same substance gave an IC50 in data set [2] of 3300 nM.

In the case of “[(R)-(3-ethylisopropylamino-propylthio)-Sar]^3 Cyclosporin A [Example 2]”, the “Epimerization (%)” value in data set [1] (time 0 days) and in data set [1] (time 35 days) was 0% in each case. The substance further registered an IC50 in data set [2] of 2800 nM.

In the case of “[(R)-(3-morpholin-4-yl-propylthio)-Sar]^3 Cyclosporin A [Example 1]”, the “Epimerization (%)” value amounted to 0% in data set [1] (time 0 days), 0% in data set [1] (time 6 days) and 0.2% in data set [1] (time 30 days). In data set [2], this substance gave an IC50 of 3000 nM.
